Measurements published in patent publication US20100168049A1, “COMBINATION OF MONOSACCHARIDES AND ADENOSINE AND USE THEREOF” (L'OREAL, priority 2008, published 2010).

Tests used:
[1] = tested on: keratinocytes (HaCat line); test: Proliferation of keratinocytes (Cyquant, Nile red, XTT markers); format: cell-based
Method: The keratinocytes (HaCat line) are cultured under two conditions: whole defined culture medium (standard condition) and culture medium deficient in growth factors. This deficient medium gives rise to a controlled delay in cell proliferation. Under these conditions, it is then possible to measure the effects of compounds capable of compensating for the deficiency in growth factors of the culture medium and thus of relaunching the cell multiplication and/or of stimulating cell metabolism.
The keratinocyte proliferation is measured by means of three markers on the same cell population: the level of DNA, which is proportional to the number of cells (Cyquant probe), the level of constituent polar lipids of cell membranes (Nile red probe) and the mitochondrial respiration, which reflects the general cell metabolism (XTT probe).

[2] = tested on: dermal fibroblasts of the reconstructed skin; test: Proliferation of fibroblasts in whole reconstructed skin (propidium iodide nuclei count); format: cell-based, human; settings: 5 mM; within 48 hours of treatment
From the text: Rhamnose was studied on a model of whole reconstructed skin in order to measure its anti-ageing efficacy on the dermal compartment.
Briefly, the model of reconstructed skin used is that described by Bell et al. (Bell E. et al., The reconstitution of living skin, J. Invest. Dermatol., 1983, July; 81): it includes a dermal equivalent on which is reconstructed a multistratified epidermis; the dermal equivalent is manufactured from acid-soluble collagen, culture medium containing serum and normal adult human fibroblasts. After 5 days of shrinkage, this equivalent is inoculated with keratinocytes and then cultured for 6 days in immersion and for 7 days in emersion in order to obtain a multistratified and differentiated epidermis having a horny layer.
The reconstructed skin is treated with 5 mM rhamnose for 2 days and 5 days in the culture medium; after the treatment, the reconstructed skins are included in Tissue Tek in order to produce frozen sections 7 μm thick with a cryostat. […] Three frozen sections are prepared at random on each reconstructed skin; on each section, two microscopic fields (25× objective lens) are analysed by fluorescence microscopy and photographed. The dermal fibroblasts are thus counted for each reconstructed skin on six images in total representing the six microscopic fields considered. […]

type I procollagen = test: Synthesis of procollagen 1 in reconstructed skin (indirect immunofluorescence); format: cell-based, human; settings: for procollagen 1 synthesis: reconstructed skin
Method: Conventional detection via indirect immunofluorescence of type I procollagen in the dermis of the reconstructed skin was also performed on other series of frozen sections (anti-procoll 1 antibody (MAB 1912 Millipore)+FTIC-coupled conjugate (112-095-068 Jackson Immunoresearch)). In order to obtain bearings within the cutaneous architecture during the microscopic examination of the sections, the cell nuclei of the keratinocytes and fibroblasts are localized by staining them with propidium iodide, as described above. Three frozen sections are prepared at random on each reconstructed skin and on each section, and two microscopic fields (25× objective lens) are analysed by fluorescence microscopy and photographed. The levels of fluorescence proportional to the amount of type I procollagen are compared between the control skin and the skin treated with rhamnose.

## C[C@H](O)[C@H](O)[C@@H](O)[C@@H](O)C=O [rhamnose, L-rhamnose]
[1]; keratinocytes cultured in medium depleted in growth factors
  keratinocyte proliferation: activate keratinocyte proliferation
[1]; medium depleted in growth factor
  number of cells compared with an untreated control: higher number of cells
[2]
  growth of the dermal fibroblasts: stimulation of growth
Type I procollagen; 1 mM, 120 hours
  green fluorescence (proportional to the amount of type I procollagen) vs control skin: marked increase
  synthesis of type I procollagen by the fibroblasts: greatly stimulated
Type I procollagen; 1 mM
  procollagen 1 synthesis: stimulation of procollagen 1 synthesis
Type I procollagen; 5 mM
  procollagen 1 synthesis: stimulation of procollagen 1 synthesis
